This is an account of results in patent publication US20140228303A1, “NOVEL SGLT INHIBITORS” (Panacea Biotec Ltd, priority 2011, published 2014).

One assay relates to C57BL/6J mice. The assay is described as follows: Estimation of urinary glucose in C57BL/6J mice. Format: in vivo, mouse. The conditions noted are these: urine collected over 24 h. As for the experimental part:
Estimation of Urinary Glucose in C57BL/6J Mice
C57BL/6J mice were fasted 4 h before drug treatment. Fasted mice were weighed and randomized into different groups based on their body weight (n=6). At time T0 test compounds and standard compounds suspended in 0.25% CMC or PEG 400 formulation, were administered to respective groups and kept in metabolic cages (6 mice/cage) after dosing. Animals were fed after drug administration and urine was collected over a period of 24 h. Urinary volume was measured and urinary glucose was estimated using Merckotest Glucose Reagent (Merck Specialities Pvt. Ltd., India).

The target of the next assay is T1, mouse SGLT-2 (Mus musculus, UniProt Q923I7).
T1 construct: Full-length mouse SGLT-2 cDNA was amplified from C57BL/6J mouse kidneys and introduced in the pcDNA3.1(+) expression vector; expressed in transfected cells
T1 sequence (Q923I7 1-670): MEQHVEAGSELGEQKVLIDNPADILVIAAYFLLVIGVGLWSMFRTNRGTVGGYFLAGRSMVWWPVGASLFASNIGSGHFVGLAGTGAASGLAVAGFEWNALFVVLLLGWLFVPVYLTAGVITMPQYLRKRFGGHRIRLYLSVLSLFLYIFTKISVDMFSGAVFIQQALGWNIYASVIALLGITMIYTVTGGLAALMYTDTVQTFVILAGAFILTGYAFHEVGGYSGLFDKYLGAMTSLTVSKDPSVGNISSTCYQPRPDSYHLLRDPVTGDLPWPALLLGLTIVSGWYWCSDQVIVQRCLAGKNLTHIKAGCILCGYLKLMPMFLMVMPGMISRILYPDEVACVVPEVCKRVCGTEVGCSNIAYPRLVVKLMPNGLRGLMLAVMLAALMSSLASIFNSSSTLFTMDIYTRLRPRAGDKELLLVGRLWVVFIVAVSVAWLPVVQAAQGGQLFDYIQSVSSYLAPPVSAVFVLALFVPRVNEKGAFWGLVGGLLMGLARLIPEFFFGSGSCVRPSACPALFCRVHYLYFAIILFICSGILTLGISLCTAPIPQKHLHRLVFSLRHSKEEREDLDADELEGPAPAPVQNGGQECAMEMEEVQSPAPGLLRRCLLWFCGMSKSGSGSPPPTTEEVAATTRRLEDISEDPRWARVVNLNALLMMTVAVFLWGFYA
The assay is described as follows: Methyl-α-D-[U-14C]Glucopyranoside uptake assay for SGLT-2 in CHO-K1 cells expressing mSGLT-2. It is filed as cell-based. Particulars: N.E. = Not Effective. As to the method:
Preparation of Mouse SGLT-2 Expressing Cells
Full-length mouse SGLT-2 cDNA was amplified from C57BL/6J mouse kidneys and introduced in the pcDNA3.1(+) expression vector (Invitrogen, Inc.) and propagated in Escherichia coli strain DH5α using Luria-Bertani (LB) medium containing ampicillin. […] Stably transfected cells were selected using G418 antibiotic selection pressure.
Methyl-α-D-[U-^14C]Glucopyranoside Uptake Assay for SGLT-2
(§1) Cells expressing mSGLT-2 were seeded on 96-well tissue culture plates (Greiner, Inc.) in RPMI containing 10% FBS and 400 μg/mL G418 (0.8×10^5 cells per well in 200 μL medium) and incubated at 37° C. under 5% carbon dioxide for 24 h prior to the assay. Cells were washed twice with 200 μL of either sodium buffer (140 mM NaCl, 4.7 mM KCl, 2.2 mM CaCl2, 1.2 mM MgCl2, 10 mM Tris/Hepes, pH 7.4) or sodium-free buffer (137 mM N-methyl-glucamine, 4.7 mM KCl, 2.2 mM CaCl2, 1.2 mM MgCl2, 10 mM Tris/Hepes, pH 7.4). Reaction mixture containing test compounds at different concentrations diluted in assay buffer, 0.1 mM unlabeled Methyl-α-D-glucopyranoside and 1 μCi/well methyl-α-D[U-^14C]glucopyranoside (American Radiochemicals) was added per well of a 96-well plate and incubated at 37° C. for 1 h. Cells were washed thrice with 200 μL of wash buffer (140 mM NaCl, 4.7 mM KCl, 2.2 mM CaCl2, 1.2 mM MgCl2, 10 mM Tris/Hepes, pH 7.4 containing 500 μM phlorizin) and lysed using 50 μL of 0.25N NaOH. Methyl-α-D[U-^14C]glucopyranoside uptake was quantitated using a Top count scintillation counter (PerkinElmer, Inc.). All the test compounds were assayed in triplicates.

Another assay concerns the target T2, human SGLT-1 (Homo sapiens, UniProt P13866).
T2 construct: Full-length human SGLT-1 cDNA in the pCMV-XL-Neo expression vector was obtained from Origene Corporation
T2 sequence (P13866 1-664): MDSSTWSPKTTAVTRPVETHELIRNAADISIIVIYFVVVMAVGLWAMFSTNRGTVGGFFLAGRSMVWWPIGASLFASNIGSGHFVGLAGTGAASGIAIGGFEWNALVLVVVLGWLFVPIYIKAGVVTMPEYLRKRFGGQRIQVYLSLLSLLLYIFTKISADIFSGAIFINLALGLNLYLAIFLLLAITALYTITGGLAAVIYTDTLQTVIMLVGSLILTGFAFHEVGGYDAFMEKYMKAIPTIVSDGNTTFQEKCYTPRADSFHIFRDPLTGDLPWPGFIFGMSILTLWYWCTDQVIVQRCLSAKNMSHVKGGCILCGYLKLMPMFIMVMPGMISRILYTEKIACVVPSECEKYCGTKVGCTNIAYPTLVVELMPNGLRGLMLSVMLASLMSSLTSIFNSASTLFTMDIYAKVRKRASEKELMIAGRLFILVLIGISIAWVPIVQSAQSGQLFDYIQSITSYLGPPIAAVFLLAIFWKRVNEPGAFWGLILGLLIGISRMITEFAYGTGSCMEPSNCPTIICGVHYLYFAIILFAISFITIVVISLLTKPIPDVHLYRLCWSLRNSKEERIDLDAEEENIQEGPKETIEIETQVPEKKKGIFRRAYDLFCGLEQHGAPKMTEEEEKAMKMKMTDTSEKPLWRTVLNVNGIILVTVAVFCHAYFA
The assay is described as follows: Methyl-α-D-[U-14C]Glucopyranoside uptake assay for SGLT-1 in CHO-K1 cells expressing hSGLT-1. Format: cell-based. The conditions noted are these: N.E. = Not Effective. As to the method: Preparation of Human SGLT-1 Expressing Cells
Full-length human SGLT-1 cDNA in the pCMV-XL-Neo expression vector was obtained from Origene Corporation and propagated in Escherichia coli strain DH5α using Luria-Bertani (LB) medium containing ampicillin. […] Stably transfected cells were selected using G418 antibiotic selection pressure.
Methyl-α-D-[U-^14C]Glucopyranoside Uptake Assay for SGLT-1
as §1, with “hSGLT-1” for “mSGLT-2”, “800 μg/ml” for “400 μg/mL”, “compounds” for “compounds at different concentrations”, “1” for “0.1”, “methyl-α-D-[U-^14C]glucopyranoside” for “methyl-α-D[U-^14C]glucopyranoside”, “Methyl-α-D-[U-^14C]glucopyranoside” for “Methyl-α-D[U-^14C]glucopyranoside”

As to “1-(4-(2-chloro-5-((1S,2S,3S,4R,5S)-2,3,4-trihydroxy-1-(hydroxymethyl)-6,8-dioxabicyclo[3.2.1]octan-5-yl)benzyl)phenyl)ethanone O-methyl oxime [Compound 4]”, the “UGE in mice (in mg/g of feed consumed) at 3 mpk” value (from here on “UGE in mice”) in the assay with C57BL/6J mice was 76.2 mg/g of feed consumed.
As to “1-(4-(2-chloro-5-((2S,3R,4R,5S,6R)-3,4,5-trihydroxy-6-(hydroxymethyl)tetrahydro-2H-pyran-2-yl)benzyl)phenyl)-propan-1-one O-methyl oxime [Compound 7]”, the “% inhibition of Methyl-α-D-[U-14C] Glucopyranoside uptake (CHO-K1 cells) mediated by SGLT-2” value (“% inhibition … by SGLT-2” for short) on mouse SGLT-2 (0.1 nM compound) worked out at 44.36%; on mouse SGLT-2 (1 nM compound) it was 48.64%; on mouse SGLT-2 (10 nM compound), 42.26%; at mouse SGLT-2 (100 nM compound), 74.40%. Further, the “% inhibition of Methyl-α-D-[U-14C] Glucopyranoside uptake (CHO-K1 cells) mediated by SGLT-1” value (shortened to “% inhibition … by SGLT-1”) on human SGLT-1 (100 nM compound) is recorded as “N.E”; at human SGLT-1 (1 μM compound) it was “N.E”; at human SGLT-1 (10 μM compound), 56.97%. The “UGE in mice” value in the assay with C57BL/6J mice was 78.4 mg/g of feed consumed.
As to `CCON=C(CC)c1ccc(Cc2cc([C@@H]3O[C@H](CO)[C@@H](O)[C@H](O)[C@H]3O)ccc2Cl)cc1` [Compound 17], the “UGE in mice” value in the assay with C57BL/6J mice is reported as 64.5 mg/g of feed consumed.
As for “1-(4-(2-chloro-5-((2S,3R,4R,5S,6R)-3,4,5-trihydroxy-6-(hydroxymethyl)tetrahydro-2H-pyran-2-yl)benzyl)phenyl)ethanone O-ethyl oxime [Compound 6]”, the “% inhibition … by SGLT-2” value amounted to 44.05% at mouse SGLT-2 (0.1 nM compound), 45.09% at mouse SGLT-2 (1 nM compound), 62.06% at mouse SGLT-2 (10 nM compound) and 89.78% on mouse SGLT-2 (100 nM compound). The “% inhibition … by SGLT-1” value is on record as “N.E” on human SGLT-1 (100 nM compound), 22.68% on human SGLT-1 (1 μM compound) and 60.02% at human SGLT-1 (10 μM compound). Further, the “UGE in mice” value in the assay with C57BL/6J mice was 78.1 mg/g of feed consumed.
On to “1-(4-(2-chloro-5-((1S,2S,3S,4R,5S)-2,3,4-trihydroxy-1-(hydroxymethyl)-6,8-dioxabicyclo[3.2.1]octan-5-yl)benzyl)phenyl)ethanone O-ethyl oxime [Compound 8]”, for which the “% inhibition … by SGLT-2” value on mouse SGLT-2 (0.1 nM compound) is recorded as “N.E”; on mouse SGLT-2 (1 nM compound), 25.35%; at mouse SGLT-2 (10 nM compound), 72.44%; on mouse SGLT-2 (100 nM compound), 90.93%. The figures for the “% inhibition … by SGLT-1” value at human SGLT-1 (100 nM compound), on human SGLT-1 (1 μM compound) and on human SGLT-1 (10 μM compound) were 20.63%, 55.66% and 88.57%, respectively. Moreover, the “UGE in mice” value with C57BL/6J mice is 60.6 mg/g of feed consumed.
Turning to “1-(4-(2-chloro-5-((2S,3R,4R,5S,6S)-3,4,5-trihydroxy-6-methoxy tetrahydro-2H-pyran-2-yl)benzyl)phenyl)ethanone O-ethyl oxime [Compound 5]”, the “% inhibition … by SGLT-2” value at mouse SGLT-2 (0.1 nM compound) is 23.91%; on mouse SGLT-2 (1 nM compound), 45.81%; at mouse SGLT-2 (10 nM compound), 50.06%; at mouse SGLT-2 (100 nM compound), 91.98%. Besides, the “% inhibition … by SGLT-1” value is “N.E” at human SGLT-1 (100 nM compound), “N.E” at human SGLT-1 (1 μM compound) and 49.74% at human SGLT-1 (10 μM compound). Moreover, the “UGE in mice” value in the assay with C57BL/6J mice is recorded as 81.7 mg/g of feed consumed.
